In the supplement of paper PMC10307832:

Assays:
Assay in all cases: relative viability (nuclei count vs DMSO), 5 days (fraction); higher = more cells survive
GSK-J4 + Palbociclib = compound: CCOC(=O)CCNc1cc(N2CCc3ccccc3CC2)nc(-c2ccccn2)n1 [GSK-J4] + CC(=O)c1c(C)c2cnc(Nc3ccc(N4CCNCC4)cn3)nc2n(C2CCCC2)c1=O [Palbociclib] (partner 0.5 µM)
Procedure, shortened: (§1)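 Cells from lung cancer lines were seeded into 1536-well plates and, one day later, dosed by pin tool. Treatments were either a single drug or a fixed dose of an anchor drug with five library-drug doses (not always all listed) in √10 steps. After 5 days, nuclei were stained in a one-step fixation (final 0.05% Triton X-100, 1% formaldehyde, 1 ug/ml Hoechst) and counted on 4× images, and relative viability is the treated-to-vehicle nuclei ratio, as the median of duplicate plates.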

GSK-J4 + Pemetrexed = compound: CCOC(=O)CCNc1cc(N2CCc3ccccc3CC2)nc(-c2ccccn2)n1 [GSK-J4] + Nc1nc2[nH]cc(CCc3ccc(C(=O)N[C@@H](CCC(=O)O)C(=O)O)cc3)c2c(=O)[nH]1 [Pemetrexed] (partner 0.2 µM)
Procedure, shortened: as §1

AZ3146 + Alpelisib = compound: CN1CCC(CC1)OC2=CC(=C(C=C2)NC3=NC=C4C(=N3)N(C(=O)N4C)C5CCCC5)OC [AZ3146] + Cc1nc(NC(=O)N2CCC[C@H]2C(N)=O)sc1-c1ccnc(C(C)(C)C(F)(F)F)c1 [Alpelisib] (partner 2 µM)
Procedure, shortened: as §1

AZ3146 + Decitabine = compound: CN1CCC(CC1)OC2=CC(=C(C=C2)NC3=NC=C4C(=N3)N(C(=O)N4C)C5CCCC5)OC [AZ3146] + Nc1ncn([C@H]2C[C@H](O)[C@@H](CO)O2)c(=O)n1 [Decitabine] (partner 2 µM)
Procedure, shortened: as §1

| Cell Line | relative viability (GSK-J4 + Palbociclib; first compound 0.5 µM) | relative viability (GSK-J4 + Palbociclib; first compound 1.581 µM) | relative viability (GSK-J4 + Palbociclib; first compound 5 µM) | relative viability (GSK-J4 + Palbociclib; first compound 15.81 µM) | relative viability (GSK-J4 + Palbociclib; first compound 50 µM) | relative viability (GSK-J4 + Pemetrexed; first compound 0.5 µM) | relative viability (GSK-J4 + Pemetrexed; first compound 1.581 µM) | relative viability (GSK-J4 + Pemetrexed; first compound 5 µM) | relative viability (GSK-J4 + Pemetrexed; first compound 15.81 µM) | relative viability (GSK-J4 + Pemetrexed; first compound 50 µM) | relative viability (AZ3146 + Alpelisib; first compound 0.8 µM) | relative viability (AZ3146 + Alpelisib; first compound 2.53 µM) | relative viability (AZ3146 + Alpelisib; first compound 8 µM) | relative viability (AZ3146 + Decitabine; first compound 0.08 µM) | relative viability (AZ3146 + Decitabine; first compound 0.253 µM) | relative viability (AZ3146 + Decitabine; first compound 0.8 µM) | relative viability (AZ3146 + Decitabine; first compound 2.53 µM) | relative viability (AZ3146 + Decitabine; first compound 8 µM) | relative viability (AZ3146 + Alpelisib; first compound 0.08 µM) | relative viability (AZ3146 + Alpelisib; first compound 0.253 µM) |
| --- | --- | --- | --- | --- | --- | --- | --- | --- | --- | --- | --- | --- | --- | --- | --- | --- | --- | --- | --- | --- |
| LCLC-97TM1 | 0.211 | 0.216 | 0.225 | 0.211 | 0.272 | 0.15 | 0.153 | 0.198 | 0.148 | 0.181 | 0.245 | 0.3 | 0.247 | 0.209 | 0.254 | 0.225 | 0.222 | 0.248 |  |  |
| NCI-H1993 | 0.588 | 0.623 | 0.606 | 0.542 | 0.481 | 0.699 | 0.585 | 0.575 | 0.562 | 0.476 | 0.61 | 0.666 | 0.662 | 0.699 | 0.54 | 0.561 | 0.588 | 0.594 | 0.785 | 0.713 |
| NCI-H1793 | 0.298 | 0.264 | 0.28 | 0.204 | 0.162 | 1.01 | 0.6 | 0.684 | 0.235 | 0.167 | 0.758 | 0.779 | 0.624 | 0.252 | 0.523 | 0.456 | 0.283 | 0.488 | 0.578 | 0.743 |
| NCI-H2087 | 0.256 | 0.243 | 0.282 | 0.24 | 0.227 | 0.622 | 0.667 | 0.635 | 0.621 | 0.742 | 1.19 | 1.11 | 0.953 | 0.227 | 0.328 | 0.289 | 0.315 | 0.202 | 1.03 | 1.04 |
| COR-L23 | 0.274 | 0.233 |  | 0.251 | 0.258 | 0.185 | 0.192 |  | 0.212 | 0.207 | 0.766 | 0.824 | 0.639 | 0.377 | 0.461 | 0.418 | 0.467 | 0.369 | 0.705 | 0.74 |
| NCI-H1355 | 0.372 | 0.375 | 0.415 | 0.35 | 0.356 | 0.988 | 0.975 | 0.889 | 0.858 | 0.992 | 0.897 | 0.723 | 0.809 | 0.336 | 0.32 | 0.362 | 0.423 | 0.361 | 0.836 | 0.849 |
| RERF-LC-KJ | 1.07 | 0.954 | 1.13 | 1.04 | 0.728 | 0.472 | 0.47 | 0.448 | 0.44 | 0.442 | 0.685 | 0.888 | 0.747 | 0.69 | 0.704 | 0.731 | 0.73 | 0.381 | 0.805 | 0.834 |
| NCI-H1734 | 0.332 | 0.318 | 0.346 | 0.335 | 0.281 | 0.424 | 0.412 | 0.391 | 0.407 | 0.364 | 0.731 | 0.649 | 0.696 | 0.4 | 0.499 | 0.429 | 0.5 | 0.484 | 0.731 | 0.62 |
| NCI-H2126 | 0.374 | 0.397 | 0.356 | 0.333 | 0.358 | 0.716 | 0.593 | 0.733 | 0.621 | 0.555 | 0.757 | 0.724 | 0.731 | 0.626 | 0.604 | 0.569 | 0.597 | 0.572 | 0.683 | 0.705 |
| NCI-H1792 | 0.622 |  | 0.773 | 0.569 | 0.668 | 0.799 | 0.595 | 0.501 | 0.632 | 0.777 | 0.762 | 0.667 | 0.718 | 0.399 | 0.503 | 0.54 | 0.641 | 0.669 | 0.577 | 0.75 |
| NCI-H23 | 0.483 | 0.398 | 0.48 | 0.375 | 0.42 | 0.679 | 0.525 | 0.653 | 0.568 | 0.598 | 0.676 | 0.744 | 0.738 | 0.329 | 0.313 | 0.324 | 0.354 | 0.425 | 0.591 | 0.668 |
| EPLC-272H | 0.342 | 0.327 | 0.371 | 0.309 | 0.33 | 0.36 | 0.294 | 0.319 | 0.295 | 0.3 | 0.933 | 0.973 | 0.964 | 0.375 | 0.379 | 0.396 | 0.368 | 0.418 | 0.706 | 0.925 |
| NCI-H2023 | 0.317 | 0.371 | 0.385 | 0.41 | 0.435 | 0.177 | 0.245 | 0.238 | 0.218 | 0.173 | 0.642 | 0.608 | 0.463 | 0.235 | 0.203 | 0.246 | 0.227 | 0.13 | 0.593 | 0.499 |
| NCI-H647 | 0.404 | 0.348 | 0.358 | 0.411 | 0.471 | 0.175 | 0.177 | 0.168 | 0.184 | 0.205 | 1.27 | 1.28 | 0.534 | 0.359 | 0.521 | 0.381 | 0.441 | 0.329 | 1.05 | 1.21 |
| NCI-H661 | 0.41 | 0.38 | 0.388 | 0.409 | 0.361 | 0.908 | 0.827 | 0.883 | 0.883 | 0.788 | 0.565 | 0.689 | 1.03 | 0.541 | 0.514 | 0.607 | 0.555 | 0.448 | 0.729 | 0.549 |
| NCI-H1975 | 0.543 | 0.498 | 0.613 | 0.524 | 0.634 | 0.249 | 0.285 | 0.212 | 0.331 | 0.276 | 0.671 | 0.616 | 0.301 | 0.415 | 0.601 | 0.367 | 0.379 | 0.415 | 0.658 | 0.627 |
| BEN | 0.476 | 0.314 | 0.465 | 0.419 | 0.457 | 0.933 | 0.759 | 0.501 | 0.731 | 0.573 | 1.06 | 1.07 | 0.895 |  | 0.673 | 0.611 | 0.759 | 0.644 |  | 0.967 |
| NCI-H1437 | 0.293 | 0.278 | 0.332 | 0.38 | 0.205 | 0.298 | 0.317 | 0.3 | 0.297 | 0.262 | 0.876 | 0.96 | 0.911 | 0.536 | 0.533 | 0.598 | 0.531 | 0.481 | 0.954 | 1.05 |
| NCI-H1666 | 0.685 | 0.561 | 0.59 | 0.627 | 0.708 | 0.864 | 0.665 | 0.765 | 0.882 | 0.791 | 0.962 | 0.956 | 0.841 | 0.666 | 0.706 | 0.679 | 0.673 | 0.711 | 0.739 | 0.848 |
| NCI-H2085 | 0.451 | 0.434 | 0.386 | 0.495 | 0.494 | 0.899 | 0.789 | 0.699 | 0.883 | 0.961 | 0.94 | 0.99 | 0.808 | 0.525 | 0.53 | 0.581 | 0.598 | 0.611 | 0.993 | 0.947 |
| LXF-289 | 0.588 | 0.546 | 0.58 | 0.555 | 0.533 | 0.835 | 0.776 | 0.931 | 0.805 | 0.813 | 0.96 | 1.06 | 0.946 | 0.356 | 0.382 | 0.403 | 0.432 | 0.388 | 1.02 | 1 |
| NCI-H322M | 0.493 | 0.446 | 0.497 | 0.435 | 0.538 | 0.638 | 0.588 | 0.672 | 0.394 | 0.682 | 0.699 | 0.807 | 0.785 | 0.604 | 0.671 | 0.727 | 0.698 | 0.721 | 0.759 | 0.83 |
| LU99A | 0.403 | 0.375 |  | 0.383 | 0.344 | 0.16 | 0.158 |  | 0.178 | 0.166 | 0.515 | 0.606 | 0.438 |  | 0.848 | 0.879 | 0.82 | 1.02 | 0.494 | 0.564 |
| NCI-H650 | 0.309 | 0.283 |  | 0.255 | 0.239 | 0.82 | 0.843 |  | 0.833 | 0.842 | 0.915 | 1.14 | 1.25 | 0.307 | 0.31 | 0.324 | 0.317 | 0.323 | 0.813 | 1.08 |
| PC-14 | 0.471 | 0.624 | 0.454 | 0.518 | 0.544 | 0.128 | 0.143 | 0.13 | 0.143 | 0.17 | 0.979 | 1.07 | 0.916 | 0.208 | 0.2 | 0.249 | 0.15 | 0.0833 | 0.897 | 0.976 |
| HARA | 0.242 | 0.247 | 0.23 | 0.234 | 0.3 | 0.219 | 0.214 |  | 0.263 | 0.243 | 0.883 | 0.909 | 0.725 | 0.493 | 0.563 | 0.481 | 0.487 | 0.478 | 0.629 | 0.785 |
| NCI-H1944 | 0.378 | 0.334 |  | 0.274 | 0.342 | 0.553 | 0.565 |  | 0.48 | 0.586 | 0.991 | 0.825 | 0.861 | 0.329 | 0.44 | 0.429 | 0.445 | 0.468 |  | 0.845 |
